Measured values from US9670210B2, “Cyclopropylamines as LSD1 inhibitors” (Incyte Corporation, priority 2014, dated 2017).

The compounds below were run against LSD-1 enzyme (Homo sapiens (Human), UniProt O60341).
Experimental: LSD1 Histone Demethylase Biochemical Assay
LANCE LSD1/KDM1A demethylase assay-10 μL of 1 nM LSD-1 enzyme (ENZO BML-SE544-0050) in the assay buffer (50 mM Tris, pH 7.5, 0.01% Tween-20, 25 mM NaCl, 5 mM DTT) were preincubated for 1 hour at 25° C. with 0.8 μL compound/DMSO dotted in black 384 well polystyrene plates. […] After stopping the reactions plates were incubated for 30 minutes and read on a PHERAstar FS plate reader (BMG Labtech).
Work on Fc1ccc(CN2CC(CN[C@@H]3C[C@H]3c3ccccc3)C2)cc1 (relative stereo) [Example 2, N-{[1-(4-Fluorobenzyl)azetidin-3-yl]methyl}-trans-2-phenylcyclopropanamine] yielded an IC50 of less than 0.1 µM.
O=C(N1CCC(O)(c2ccccc2)CC1)N1CC(CN[C@@H]2C[C@H]2c2ccccc2)C1 (relative stereo) [Example 17, 4-Phenyl-1-[(3-{[(trans-2-phenylcyclopropyl)amino]methyl}azetidin-1-yl)carbonyl]piperidin-4-ol] gave an IC50 of less than 0.1 µM.
With COCC1(CN[C@@H]2C[C@H]2c2ccccc2)CCN(C(=O)[C@H]2CC[C@H](CO)CC2)CC1 [Example 100, (trans-4-{[4-(methoxymethyl)-4-({[(1R,2S)-2-phenylcyclopropyl]amino}methyl)piperidin-1-yl]carbonyl}cyclohexyl)methanol] the IC50 was less than 0.1 µM.
In the case of CC1(CN[C@@H]2C[C@H]2c2ccccc2)CCN(C(=O)c2ccc(N)nn2)CC1 [Example 49, 6-{[4-methyl-4-({[(1R,2S)-2-phenylcyclopropyl]amino}methyl)piperidin-1-yl]carbonyl}pyridazin-3-amine], the IC50 is reported as less than 0.1 µM.
COCC1(CN[C@@H]2C[C@H]2c2ccccc2)CCN(C(=O)c2cn(C)cn2)CC1 [Example 39, (1R,2S)—N-({4-(methoxymethyl)-1-[(1-methyl-1H-imidazol-4-yl)carbonyl]piperidin-4-yl}methyl)-2-phenylcyclopropanamine] showed an IC50 of less than 0.1 µM.
In the case of O=C(O)C1(CN2CCC(CN[C@@H]3C[C@H]3c3ccccc3)(COc3cccc(F)c3)CC2)CCC1 [Example 78, 1-{[4-[(3-fluorophenoxy)methyl]-4-({[(1R,2S)-2-phenylcyclopropyl]amino}methyl)piperidin-1-yl]methyl}cyclobutanecarboxylic acid], the IC50 is reported as less than 0.1 µM.
With COCC1(CN[C@@H]2C[C@H]2c2ccccc2)CCN(C(=O)N2CCC[C@H](O)C2)CC1 [Example 110, (3S)-1-{[4-(methoxymethyl)-4-({[(1R,2S)-2-phenylcyclopropyl]amino}methyl)piperidin-1-yl]carbonyl}piperidin-3-ol] the IC50 was less than 0.1 µM.
Compound COC1CCCN(C(=O)N2CC(CNC3CC3c3ccccc3)C2)C1 (stereo not drawn) [Example 15, N-({1-[(3-Methoxypiperidin-1-yl)carbonyl]azetidin-3-yl}methyl)-trans-2-phenylcyclopropanamine] has an IC50 of less than 0.1 µM.
O=C(Nc1ccccc1F)N1CC(CN[C@@H]2C[C@H]2c2ccccc2)C1 (relative stereo) [Example 19, N-(2-Fluorophenyl)-3-{[(trans-2-phenylcyclopropyl)amino]methyl}azetidine-1-carboxamide] gave an IC50 of less than 0.1 µM.
With O=C(Nc1ccc(F)cc1)N1CC(CN[C@@H]2C[C@H]2c2ccccc2)C1 (relative stereo) [Example 21, N-(4-Fluorophenyl)-3-{[(trans-2-phenylcyclopropyl)amino]methyl}azetidine-1-carboxamide] the IC50 was less than 0.1 µM.
Compound COCC1(CN[C@@H]2C[C@H]2c2ccc(F)c(F)c2)CCN(CC2(C(=O)O)CCC2)CC1 [Example 65, 1-{[4-({[(1R,2S)-2-(3,4-difluorophenyl)cyclopropyl]amino}methyl)-4-(methoxymethyl)piperidin-1-yl]methyl}cyclobutanecarboxylic acid] has an IC50 of less than 0.1 µM.
Compound O=C(O)C1(CN2CCC(CN[C@@H]3C[C@H]3c3ccccc3)(COc3ccccc3F)CC2)CC1 [Example 75, 1-{[4-[(2-fluorophenoxy)methyl]-4-({[(1R,2S)-2-phenylcyclopropyl]amino}methyl)piperidin-1-yl]methyl}cyclopropanecarboxylic acid] has an IC50 of less than 0.1 µM.
Compound COc1cccc(CN2CCC(CN[C@@H]3C[C@H]3c3ccccc3)(Cc3cccc(C(=O)O)c3)CC2)c1 [Example 59, 3-{[1-(3-methoxybenzyl)-4-({[(1R,2S)-2-phenylcyclopropyl]amino}methyl)piperidin-4-yl]methyl}benzoic acid] has an IC50 of less than 0.1 µM.
In the case of N#Cc1ccc(OCC2(CN[C@@H]3C[C@H]3c3ccccc3)CCN(CC3(C(=O)O)CC3)CC2)c(F)c1 [Example 82, 1-{[4-[(4-cyano-2-fluorophenoxy)methyl]-4-({[(1R,2S)-2-phenylcyclopropyl]amino}methyl)piperidin-1-yl]methyl}cyclopropanecarboxylic acid], the IC50 is reported as less than 0.1 µM.
In the case of N#Cc1ccccc1OCC1(CN[C@@H]2C[C@H]2c2ccccc2)CCN(CC2(C(=O)O)CC2)CC1 [Example 79, 1-{[4-[(2-cyanophenoxy)methyl]-4-({[(1R,2S)-2-phenylcyclopropyl]amino}methyl)piperidin-1-yl]methyl}cyclopropanecarboxylic acid], the IC50 is reported as less than 0.1 µM.
With O=C(O)C1(CN2CCC(CN[C@@H]3C[C@H]3c3ccccc3)(COCc3ccccc3)CC2)CC1 [Example 72, 1-{[4-[(benzyloxy)methyl]-4-({[(1R,2S)-2-phenylcyclopropyl]amino}methyl)piperidin-1-yl]methyl}cyclopropanecarboxylic acid] the IC50 was less than 0.1 µM.
O=C(N1CCC2(CC1)CNc1ccc(F)cc12)N1CC(CN[C@@H]2C[C@H]2c2ccccc2)C1 (relative stereo) [Example 18, N-({1-[(5-Fluoro-1,2-dihydro-spiro[indole-3,4′-piperidin]-1′-yl)carbonyl]azetidin-3-yl}methyl)-trans-2-phenylcyclopropanamine] gave an IC50 of less than 0.1 µM.
N#Cc1ccccc1OCC1(CN[C@@H]2C[C@H]2c2ccccc2)CCN(CC2(C(=O)O)CCC2)CC1 [Example 83, 1-{[4-[(2-cyanophenoxy)methyl]-4-({[(1R,2S)-2-phenylcyclopropyl]amino}methyl)piperidin-1-yl]methyl}cyclobutanecarboxylic acid] showed an IC50 of less than 0.1 µM.
COCC1(CN[C@@H]2C[C@H]2c2ccccc2)CCN(S(=O)(=O)c2ccn(C)n2)CC1 [Example 116, (1R,2S)—N-({4-(methoxymethyl)-1-[(1-methyl-1H-pyrazol-3-yl)sulfonyl]piperidin-4-yl}methyl)-2-phenylcyclopropanamine] showed an IC50 of less than 0.1 µM.
COCC1(CN[C@@H]2C[C@H]2c2ccccc2)CCN(S(=O)(=O)c2ccnn2C)CC1 [Example 115, (1R,2S)—N-({4-(methoxymethyl)-1-[(1-methyl-1H-pyrazol-5-yl)sulfonyl]piperidin-4-yl}methyl)-2-phenylcyclopropanamine] showed an IC50 of less than 0.1 µM.
COCC1(CN[C@@H]2C[C@H]2c2ccccc2)CCN(C(=O)N2CCC(O)CC2)CC1 [Example 112, 1-{[4-(methoxymethyl)-4-({[(1R,2S)-2-phenylcyclopropyl]amino}methyl)piperidin-1-yl]carbonyl}piperidin-4-ol] showed an IC50 of less than 0.1 µM.
COCC1(CN[C@@H]2C[C@H]2c2ccccc2)CCN(C(=O)N2CCC(OC)CC2)CC1 [Example 113, (1R,2S)—N-({4-(methoxymethyl)-1-[(4-methoxypiperidin-1-yl)carbonyl]piperidin-4-yl}methyl)-2-phenylcyclopropanamine] gave an IC50 of less than 0.1 µM.
Compound N#Cc1ccc(CN2CC(CN[C@@H]3C[C@H]3c3ccccc3)C2)cc1 (relative stereo) [Example 6, 4-[(3-{[(trans-2-Phenylcyclopropyl)amino]methyl}azetidin-1-yl)methyl]benzonitrile] has an IC50 of less than 0.1 µM.
For O=C(O)C1(CN2CCC(CN[C@@H]3C[C@H]3c3ccccc3)(Cc3ccc(F)cc3)CC2)CCC1 [Example 32, 1-{[4-(4-fluorobenzyl)-4-({[(1R,2S)-2-phenylcyclopropyl]amino}methyl)piperidin-1-yl]methyl}cyclobutanecarboxylic acid], the IC50 was less than 0.1 µM.
Work on N#Cc1cccc(OCC2(CN[C@@H]3C[C@H]3c3ccccc3)CCN(CC3(C(=O)O)CC3)CC2)c1 [Example 80, 1-{[4-[(3-cyanophenoxy)methyl]-4-({[(1R,2S)-2-phenylcyclopropyl]amino}methyl)piperidin-1-yl]methyl}cyclopropanecarboxylic acid] yielded an IC50 of less than 0.1 µM.
For N#CCc1ccc(CC2(CN[C@@H]3C[C@H]3c3ccccc3)CCN(CC3(C(=O)O)CCC3)CC2)cc1 [Example 54, 1-{[4-[4-(cyanomethyl)benzyl]-4-({[(1R,2S)-2-phenylcyclopropyl]amino}methyl)piperidin-1-yl]methyl}cyclobutanecarboxylic acid], the IC50 was less than 0.1 µM.
Compound CC1(CN[C@@H]2C[C@H]2c2ccccc2)CCN(C(=O)c2c[nH]nc2N)CC1 [Example 50, 4-{[4-methyl-4-({[(1R,2S)-2-phenylcyclopropyl]amino}methyl)piperidin-1-yl]carbonyl}-1H-pyrazol-3-amine] has an IC50 of less than 0.1 µM.
CC1(CN[C@@H]2C[C@H]2c2ccccc2)CCN(C(=O)C2(N)CCCC2)CC1 [Example 51, 1-{[4-methyl-4-({[(1R,2S)-2-phenylcyclopropyl]amino}methyl)piperidin-1-yl]carbonyl}cyclopentanamine] showed an IC50 of less than 0.1 µM.
COCCn1cc(C(=O)N2CCC(CN[C@@H]3C[C@H]3c3ccccc3)(COC)CC2)cn1 [Example 104, (1R,2S)—N-{[1-{[1-(2-methoxyethyl)-1H-pyrazol-4-yl]carbonyl}-4-(methoxymethyl)piperidin-4-yl]methyl}-2-phenylcyclopropanamine] gave an IC50 of less than 0.1 µM.
Compound O=C(N1CCC(C(F)(F)F)CC1)N1CC(CN[C@@H]2C[C@H]2c2ccccc2)C1 (relative stereo) [Example 13, Trans-2-phenyl-N-[(1-{[4-(trifluoromethyl)piperidin-1-yl]carbonyl}azetidin-3-yl)methyl]cyclopropanamine] has an IC50 of less than 0.1 µM.
Work on O=C(O)C1(CN2CCC(CN[C@@H]3C[C@H]3c3ccccc3)(COc3ccccc3F)CC2)CCC1 [Example 76, 1-{[4-[(2-fluorophenoxy)methyl]-4-({[(1R,2S)-2-phenylcyclopropyl]amino}methyl)piperidin-1-yl]methyl}cyclobutanecarboxylic acid] yielded an IC50 of less than 0.1 µM.
In the case of N#Cc1ccc(OCC2(CN[C@@H]3C[C@H]3c3ccccc3)CCN(CC3(C(=O)O)CCC3)CC2)c(F)c1 [Example 86, 1-{[4-[(4-cyano-2-fluorophenoxy)methyl]-4-({[(1R,2S)-2-phenylcyclopropyl]amino}methyl)piperidin-1-yl]methyl}cyclobutanecarboxylic acid], the IC50 is reported as less than 0.1 µM.
N#Cc1cccc(CN2CC(CN[C@@H]3C[C@H]3c3ccccc3)C2)c1 (relative stereo) [Example 7, 3-[(3-{[(trans-2-Phenylcyclopropyl)amino]methyl}azetidin-1-yl)methyl]benzonitrile] showed an IC50 of less than 0.1 µM.
